Test results as given in the supplement of paper PMC10307832.

Assays:
Experiment in all cases: relative viability (nuclei count vs DMSO), 5 days (fraction); higher = more cells survive
[1] = system: NCI-H23
Method in brief: (§1)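 Each reported value is a median over duplicate plates. It expresses relative viability: treated-well nuclei count divided by vehicle-well nuclei count. Lung cancer cell lines in 1536-well plates were dosed by pin tool a day after seeding, alone with one drug or with a fixed anchor-drug dose plus five library-drug doses (not always all listed) in √10 steps, and nuclei were counted after 5 days.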

[2] = system: NCI-H441
Method in brief: as §1

[3] = system: UMC-11
Method in brief: as §1

[4] = system: PC-3 [JPC-3]
Method in brief: as §1

[5] = system: NCI-H2170
Method in brief: as §1

[6] = system: NCI-H2228
Method in brief: as §1

[7] = system: NCI-H727
Method in brief: as §1

[8] = system: H3255
Method in brief: as §1

[9] = system: EPLC-272H
Method in brief: as §1

[10] = system: LOU-NH91
Method in brief: as §1

[11] = system: NCI-H2087
Method in brief: as §1

[12] = system: NCI-H2085
Method in brief: as §1

[13] = system: SW 1573
Method in brief: as §1

[14] = system: NCI-H1975
Method in brief: as §1

[15] = system: NCI-H650
Method in brief: as §1

[16] = system: LC-2-ad
Method in brief: as §1

[17] = system: NCI-H1651
Method in brief: as §1

[18] = system: NCI-H838
Method in brief: as §1

[19] = system: NCI-H2009
Method in brief: as §1

[20] = system: HARA
Method in brief: as §1

[21] = system: NCI-H2023
Method in brief: as §1

`CN1CCN(CCOc2cc(OC3CCOCC3)c3c(Nc4c(Cl)ccc5c4OCO5)ncnc3c2)CC1` [Saracatinib] + Cc1nc(NC(=O)N2CCC[C@H]2C(N)=O)sc1-c1ccnc(C(C)(C)C(F)(F)F)c1 [Alpelisib] (partner 2 µM) was tested, and the relative viability ([1]; first compound 0.02 µM) was 0.616, the relative viability ([1]; first compound 0.6325 µM) was 0.752 and the relative viability ([1]; first compound 2 µM) was 0.526. For the same compound, the relative viability ([2]; first compound 0.02 µM) was 0.715, the relative viability ([2]; first compound 0.2 µM) was 0.544 and the relative viability ([2]; first compound 0.6325 µM) was 1.03. It also gave a relative viability ([2]; first compound 2 µM) of 0.772, a relative viability ([3]; first compound 0.02 µM) of 0.99 and a relative viability ([3]; first compound 0.6325 µM) of 1.03. The relative viability ([3]; first compound 2 µM) was 0.768, the relative viability ([4]; first compound 0.02 µM) was 0.998 and the relative viability ([4]; first compound 0.2 µM) was 0.956. It also gave a relative viability ([4]; first compound 0.6325 µM) of 0.876, a relative viability ([4]; first compound 2 µM) of 0.53 and a relative viability ([5]; first compound 0.02 µM) of 0.731. The relative viability ([5]; first compound 0.2 µM) was 0.749, the relative viability ([5]; first compound 0.6325 µM) was 0.752 and the relative viability ([5]; first compound 2 µM) was 0.464. It also gave a relative viability ([6]; first compound 0.02 µM) of 0.734, a relative viability ([6]; first compound 0.2 µM) of 0.562 and a relative viability ([6]; first compound 0.6325 µM) of 0.532. For the same compound, the relative viability ([6]; first compound 2 µM) was 0.365, the relative viability ([7]; first compound 0.02 µM) was 0.558 and the relative viability ([7]; first compound 0.2 µM) was 0.461. The relative viability ([7]; first compound 0.6325 µM) was 0.334, the relative viability ([7]; first compound 2 µM) was 0.308 and the relative viability ([8]; first compound 0.02 µM) was 0.624. The relative viability ([8]; first compound 0.2 µM) was 0.556, the relative viability ([8]; first compound 0.6325 µM) was 0.366 and the relative viability ([8]; first compound 2 µM) was 0.166. It also gave a relative viability ([9]; first compound 0.02 µM) of 1.03, a relative viability ([9]; first compound 0.2 µM) of 0.732 and a relative viability ([9]; first compound 0.6325 µM) of 0.942. The relative viability ([9]; first compound 2 µM) was 0.821, the relative viability ([10]; first compound 0.02 µM) was 0.683 and the relative viability ([10]; first compound 0.2 µM) was 0.5. It also gave a relative viability ([10]; first compound 0.6325 µM) of 0.554, a relative viability ([10]; first compound 2 µM) of 0.449 and a relative viability ([11]; first compound 0.02 µM) of 1.13. The relative viability ([11]; first compound 0.2 µM) was 0.934, the relative viability ([11]; first compound 0.6325 µM) was 1.41 and the relative viability ([11]; first compound 2 µM) was 1.04. For the same compound, the relative viability ([12]; first compound 0.02 µM) was 0.957, the relative viability ([12]; first compound 0.2 µM) was 0.85 and the relative viability ([12]; first compound 0.6325 µM) was 0.91. It also gave a relative viability ([12]; first compound 2 µM) of 0.888, a relative viability ([13]; first compound 0.02 µM) of 0.83 and a relative viability ([13]; first compound 0.2 µM) of 0.689. It also gave a relative viability ([13]; first compound 0.6325 µM) of 0.833, a relative viability ([13]; first compound 2 µM) of 0.51 and a relative viability ([14]; first compound 0.02 µM) of 0.671. For the same compound, the relative viability ([14]; first compound 0.6325 µM) was 0.585, the relative viability ([14]; first compound 2 µM) was 0.367 and the relative viability ([15]; first compound 0.02 µM) was 1.14. It also gave a relative viability ([15]; first compound 0.2 µM) of 0.814, a relative viability ([15]; first compound 0.6325 µM) of 1.21 and a relative viability ([15]; first compound 2 µM) of 1.13. The relative viability ([16]; first compound 0.02 µM) was 0.903, the relative viability ([16]; first compound 0.6325 µM) was 0.882 and the relative viability ([16]; first compound 2 µM) was 0.691. For the same compound, the relative viability ([17]; first compound 0.02 µM) was 1.02, the relative viability ([17]; first compound 0.2 µM) was 0.729 and the relative viability ([17]; first compound 0.6325 µM) was 0.913. The relative viability ([17]; first compound 2 µM) was 0.804, the relative viability ([18]; first compound 0.02 µM) was 0.993 and the relative viability ([18]; first compound 0.2 µM) was 0.929. The relative viability ([18]; first compound 0.6325 µM) was 0.771, the relative viability ([18]; first compound 2 µM) was 0.803 and the relative viability ([19]; first compound 0.02 µM) was 1.16. For the same compound, the relative viability ([19]; first compound 0.2 µM) was 1.14, the relative viability ([19]; first compound 0.6325 µM) was 1.01 and the relative viability ([19]; first compound 2 µM) was 0.961. For the same compound, the relative viability ([20]; first compound 0.02 µM) was 0.904, the relative viability ([20]; first compound 0.6325 µM) was 0.707 and the relative viability ([20]; first compound 2 µM) was 0.513. It also gave a relative viability ([21]; first compound 0.02 µM) of 0.62, a relative viability ([21]; first compound 0.2 µM) of 0.409 and a relative viability ([21]; first compound 0.6325 µM) of 0.485. The relative viability ([21]; first compound 2 µM) was 0.364.
